# Data published in patent US20210330611A1, “THERAPY FOR NEUROLOGICAL DISEASES/DISORDERS” (priority 2020, published 2021).
# Where a name gives a salt, the structure may show the parent alone. Read-outs that look alike come from different tables or passages of the source.
# Key:
# [1] = tested on: fibrin- and LPS-induced microglia activation; assay: cells; type: cell-based, rat
# [2] = tested on: primary rat microglia;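 for Fibrin % cell toxicity: share of dead cells sized under 150 µm2 at 10 µM in fibrin-stimulated microglia HTS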
# [3] = tested on: LPS-induced microglia activation; assay: Image-based assay of LPS-induced microglia activation (HTS and dose response); type: cell-based, rat; conditions: for inhibition at 10 µM: Rattus norvegicus, Microglia, read-out: LPS % inhibition
# [4] = tested on: primary rat microglia; remark: listed apart in the source;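 for Fibrin % cell toxicity: share of dead cells sized under 150 µm2 at 10 µM in fibrin-stimulated microglia HTS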
# [5] = tested on: fibrin-induced microglia activation; assay: Image-based assay of fibrin-induced microglia activation (HTS and dose response); type: cell-based, rat; conditions: for inhibition at 10 µM: Rattus norvegicus, Microglia, read-out: Fibrin % inhibition
# [6] = HTS of 1907 compounds, quadrant by fibrin and LPS inhibition
# [7] = primary microglia HTS, 10 μM, LPS-stimulated, cell size >800 μm^2 as marker of activation
# [8] = primary microglia HTS, 10 μM, fibrin-stimulated, cell size >800 μm^2 as marker of activation
# [9] = primary HTS, 10 μM, LPS-stimulated primary microglia
# [10] = primary HTS, 10 μM, fibrin-stimulated primary microglia
# [11] = primary microglia HTS, LPS stimulation, compounds at 10 μM
# [12] = primary microglia HTS, fibrin stimulation, compounds at 10 μM
# [13] = quadrant by fibrin and LPS inhibition, HTS at 10 μM
# [14] = quadrant by fibrin and LPS inhibition in HTS of 1907 compounds
# [15] = 48 h, primary microglia HTS, LPS stimulation, increased cell size (>800 μm^2) as marker of activation
# [16] = primary microglia HTS, fibrin stimulation, increased cell size (>800 μm^2) as marker of activation
compound,measurement,setting,value
Cc1c(Cl)cccc1Nc1ccccc1C(=O)O [Tolfenamic Acid],Quadrant (FIG. 5b),[1]; [6],Q4
same,Fibrin % cell toxicity,[2]; rat,1%
same,inhibition at 10 µM,[3]; [7],36%
same,LPS % cell toxicity,[4]; rat,1%
same,inhibition at 10 µM,[5]; [8],3%
Nc1nc(Cl)nc2c1ncn2[C@H]1C[C@H](O)[C@@H](CO)O1 [Cladribine],Quadrant (FIG. 5b),"[1]; primary HTS, 10 μM",Q4
same,Fibrin % cell toxicity,[2]; rat,1%
same,inhibition at 10 µM,[3]; [9],6%
same,LPS % cell toxicity,[4]; rat,0%
same,inhibition at 10 µM,[5]; [10],-23%
CCOC(=O)[C@H](CCc1ccccc1)N[C@@H](C)C(=O)N1CCC[C@H]1C(=O)O [Enalapril],Quadrant (FIG. 5b),"[1]; classification by fibrin and LPS inhibition, HTS at 10 μM",Q4
same,Fibrin % cell toxicity,[2]; rat,1%
same,inhibition at 10 µM,[3]; [11],6%
same,LPS % cell toxicity,[4]; rat,1%
same,inhibition at 10 µM,[5]; [12],24%
Cc1cccc(C)c1OCC(C)N (centres unmarked) [Mexiletine],Quadrant (FIG. 5b),[1],Q4
same,Fibrin % cell toxicity,[2]; rat,1%
same,inhibition at 10 µM,[3]; 48 h,13%
same,LPS % cell toxicity,[4]; rat,0%
same,inhibition at 10 µM,[5],2%
"C=CCc1ccccc1OCC(O)CNC(C)C (centres unmarked) [Alprenolol Hydrochloride, Alprenolol]",Quadrant (FIG. 5b),[1]; [13],Q4
same,Fibrin % cell toxicity,[2],0%
same,LPS % inhibition,[3]; [11],13%
same,LPS % cell toxicity,[4],1%
same,Fibrin % inhibition,[5]; [12],1%
C=C(c1ccc(C(=O)O)cc1)c1cc2c(cc1C)C(C)(C)CCC2(C)C [Bexarotene],Quadrant (FIG. 5b),"[1]; primary HTS, 10 μM",Q4
same,Fibrin % cell toxicity,[2]; rat,1%
same,inhibition at 10 µM,[3]; [9],10%
same,LPS % cell toxicity,[4]; rat,1%
same,inhibition at 10 µM,[5]; [10],-3%
N[C@@H](Cc1ccc(N(CCCl)CCCl)cc1)C(=O)O [Melphalan],Quadrant (FIG. 5b),[1]; [14],Q4
same,Fibrin % cell toxicity,[2]; rat,0%
same,inhibition at 10 µM,[3]; [15],3%
same,LPS % cell toxicity,[4]; rat,0%
same,inhibition at 10 µM,[5]; [16],28%
N[C@@H](Cc1c[nH]c2ccccc12)C(=O)O [Tryptophan],Quadrant (FIG. 5b),[1]; [6],Q4
same,Fibrin % cell toxicity,[2]; rat,1%
same,inhibition at 10 µM,[3]; [7],16%
same,LPS % cell toxicity,[4]; rat,0%
same,inhibition at 10 µM,[5]; [8],-6%
"NC(=O)CC[C@H](N)C(=O)O [L-glutamine, Glutamine (I)]",Quadrant (FIG. 5b),[1]; [14],Q4
same,Fibrin % cell toxicity,[2],0%
same,LPS % inhibition,"[3]; primary microglia HTS, LPS stimulation, activation = cell size >800 μm2",14%
same,LPS % cell toxicity,[4],0%
same,Fibrin % inhibition,"[5]; primary microglia HTS, fibrin stimulation, activation = cell size >800 μm2",4%
Cc1cn(-c2cc(NC(=O)c3ccc(C)c(Nc4nccc(-c5cccnc5)n4)c3)cc(C(F)(F)F)c2)cn1 [Nilotinib],Quadrant (FIG. 5b),[1]; [14],Q4
same,Fibrin % cell toxicity,[2]; rat,1%
same,inhibition at 10 µM,[3]; [15],17%
same,LPS % cell toxicity,[4]; rat,1%
same,inhibition at 10 µM,[5]; [16],-35%
Cn1cnc([N+](=O)[O-])c1Sc1ncnc2nc[nH]c12 [Azathioprine],Quadrant (FIG. 5b),[1],Q4
same,Fibrin % cell toxicity,[2]; rat,0%
same,inhibition at 10 µM,[3],16%
same,LPS % cell toxicity,[4]; rat,0%
same,inhibition at 10 µM,[5],-14%
CO[C@]12C[C@@H](COC(=O)c3cncc(Br)c3)CN(C)[C@@H]1Cc1cn(C)c3cccc2c13 [Nicergoline],Quadrant (FIG. 5b),[1]; [14],Q4
same,Fibrin % cell toxicity,[2]; rat,1%
same,inhibition at 10 µM,[3]; [15],7%
same,LPS % cell toxicity,[4]; rat,0%
same,inhibition at 10 µM,[5]; [16],6%
O=C1C[C@@H]2OCC=C3CN4CC[C@]56c7ccccc7N1[C@H]5[C@H]2[C@H]3C[C@H]46 [Strychnine],Quadrant (FIG. 5b),[1],Q4
same,Fibrin % cell toxicity,[2]; rat,1%
same,inhibition at 10 µM,[3],18%
same,LPS % cell toxicity,[4]; rat,0%
same,inhibition at 10 µM,[5],1%
"COc1cccc2c1C(=O)c1c(O)c3c(c(O)c1C2=O)C[C@@](O)(C(=O)CO)C[C@@H]3O[C@H]1C[C@H](N)[C@@H](O)[C@H](C)O1 [Epirubicin, Epirubicin Hydrochloride]",Quadrant (FIG. 5b),[1]; [14],Q2
same,Fibrin % cell toxicity,[2],79%
same,LPS % inhibition,"[3]; primary microglia HTS, LPS stimulation, increased cell size (>800 μm^2) as marker of activation",123%
same,LPS % cell toxicity,[4],58%
same,Fibrin % inhibition,[5]; [16],113%
CC(C)C[C@H](NC(=O)[C@H](Cc1ccccc1)NC(=O)c1cnccn1)B(O)O [Bortezomib],Quadrant (FIG. 5b),[1]; [14],Q2
same,Fibrin % cell toxicity,[2]; rat,86%
same,inhibition at 10 µM,[3]; [15],106%
same,LPS % cell toxicity,[4]; rat,56%
same,inhibition at 10 µM,[5]; [16],106%
NCC(=O)CCC(=O)O [Aminolevulinic acid],Quadrant (FIG. 5b),[1]; [13],Q4
same,Fibrin % cell toxicity,[2]; rat,1%
same,inhibition at 10 µM,[3]; [11],10%
same,LPS % cell toxicity,[4]; rat,0%
same,inhibition at 10 µM,[5]; [12],-4%
